We go through 14 compounds from US20240024488A1, “COMPOUNDS AND USES THEREOF” (Foghorn Therapeutics Inc., priority 2020, published 2024).

One test deals with T1, HiBit-BRM fusion protein (Homo sapiens, UniProt P51531).
T1 construct: expressed in transfected cells
Nature of the test: HiBiT-BRM cell-based degradation assay (Nano-Glo HiBiT Lytic Detection, 24 h). The following applies: HeLa cell line expressing HiBiT-BRM; for DC50: read-out: BRM HiBit Degradation IC50. The method, boiled down:
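Percent BRM loss was derived from HiBiT luminescence relative to DMSO-treated cells and cells given 2 μM of a known BRM/BRG1 degrader. Treatment lasted 24 h in HiBiT-BRM HeLa cells, with a top final concentration of 30 μM.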

The target in test [1] is T2, HiBit-BRG1 fusion protein (Homo sapiens, UniProt P51532).
T2 construct: expressed in transfected cells
Nature of the test: HiBiT-BRG1 cell-based degradation assay (Nano-Glo HiBiT Lytic Detection, 24 h). To be noted: HeLa cell line expressing HiBit-BRG1 and LgBit; for Dmax: read-out: BRG1 HiBit Degradation Maximum (%); for DC50: read-out: BRMG1 HiBit Degradation IC50. The method, boiled down:
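HeLa cells stably expressing HiBiT-BRG1 plus LgBit, 5000/well, treated 24 h, then lysed with Nano-Glo HiBiT lytic reagent and luminescence read. % degradation normalised between DMSO (high control) and 2 μM reference BRM/BRG1 degrader (low control).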
In general terms: The HiBiT peptide binds its large partner to form an active luciferase.

T1 sequence (P51531 whole entry, the tested form may be a part): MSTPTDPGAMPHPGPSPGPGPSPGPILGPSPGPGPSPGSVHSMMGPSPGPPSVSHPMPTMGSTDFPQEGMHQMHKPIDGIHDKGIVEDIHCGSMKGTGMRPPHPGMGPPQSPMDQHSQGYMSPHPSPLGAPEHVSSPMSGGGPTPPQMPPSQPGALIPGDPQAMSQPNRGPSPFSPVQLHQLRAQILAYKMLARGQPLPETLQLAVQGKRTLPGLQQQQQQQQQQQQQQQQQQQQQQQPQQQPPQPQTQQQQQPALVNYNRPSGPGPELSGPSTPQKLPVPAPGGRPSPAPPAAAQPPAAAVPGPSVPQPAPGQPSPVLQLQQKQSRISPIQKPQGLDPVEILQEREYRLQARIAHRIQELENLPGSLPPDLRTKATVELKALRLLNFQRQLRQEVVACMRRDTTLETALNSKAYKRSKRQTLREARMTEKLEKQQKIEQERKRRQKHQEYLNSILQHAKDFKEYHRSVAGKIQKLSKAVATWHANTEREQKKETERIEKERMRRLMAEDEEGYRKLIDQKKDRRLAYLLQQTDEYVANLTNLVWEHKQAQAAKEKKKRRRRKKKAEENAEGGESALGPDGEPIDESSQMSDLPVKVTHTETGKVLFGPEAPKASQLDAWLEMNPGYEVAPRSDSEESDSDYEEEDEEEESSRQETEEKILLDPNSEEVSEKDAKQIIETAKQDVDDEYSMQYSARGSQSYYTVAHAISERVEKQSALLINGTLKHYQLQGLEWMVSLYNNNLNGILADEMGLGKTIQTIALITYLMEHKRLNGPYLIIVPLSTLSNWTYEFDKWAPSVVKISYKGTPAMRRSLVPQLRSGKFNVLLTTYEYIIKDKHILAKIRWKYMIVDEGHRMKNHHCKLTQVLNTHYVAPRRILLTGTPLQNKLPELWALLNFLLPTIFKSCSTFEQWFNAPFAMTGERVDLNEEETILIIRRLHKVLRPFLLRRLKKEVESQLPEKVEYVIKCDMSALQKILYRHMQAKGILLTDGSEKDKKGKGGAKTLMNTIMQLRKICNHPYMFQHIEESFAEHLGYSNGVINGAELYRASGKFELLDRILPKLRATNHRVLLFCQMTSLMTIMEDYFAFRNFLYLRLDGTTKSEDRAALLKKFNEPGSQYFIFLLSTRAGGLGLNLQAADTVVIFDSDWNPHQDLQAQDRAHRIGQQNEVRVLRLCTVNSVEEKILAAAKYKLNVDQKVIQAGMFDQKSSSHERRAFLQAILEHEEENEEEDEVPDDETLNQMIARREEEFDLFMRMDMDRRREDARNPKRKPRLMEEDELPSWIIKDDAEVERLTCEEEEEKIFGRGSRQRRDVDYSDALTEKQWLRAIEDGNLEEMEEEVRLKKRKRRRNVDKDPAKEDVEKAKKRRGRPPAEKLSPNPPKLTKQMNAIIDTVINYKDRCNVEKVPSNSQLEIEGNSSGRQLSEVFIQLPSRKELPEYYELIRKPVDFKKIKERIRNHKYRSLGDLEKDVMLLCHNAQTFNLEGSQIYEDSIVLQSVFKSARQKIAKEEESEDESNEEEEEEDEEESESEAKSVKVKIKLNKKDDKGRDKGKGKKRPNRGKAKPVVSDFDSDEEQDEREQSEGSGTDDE
T2 sequence (P51532 whole entry, the tested form may be a part): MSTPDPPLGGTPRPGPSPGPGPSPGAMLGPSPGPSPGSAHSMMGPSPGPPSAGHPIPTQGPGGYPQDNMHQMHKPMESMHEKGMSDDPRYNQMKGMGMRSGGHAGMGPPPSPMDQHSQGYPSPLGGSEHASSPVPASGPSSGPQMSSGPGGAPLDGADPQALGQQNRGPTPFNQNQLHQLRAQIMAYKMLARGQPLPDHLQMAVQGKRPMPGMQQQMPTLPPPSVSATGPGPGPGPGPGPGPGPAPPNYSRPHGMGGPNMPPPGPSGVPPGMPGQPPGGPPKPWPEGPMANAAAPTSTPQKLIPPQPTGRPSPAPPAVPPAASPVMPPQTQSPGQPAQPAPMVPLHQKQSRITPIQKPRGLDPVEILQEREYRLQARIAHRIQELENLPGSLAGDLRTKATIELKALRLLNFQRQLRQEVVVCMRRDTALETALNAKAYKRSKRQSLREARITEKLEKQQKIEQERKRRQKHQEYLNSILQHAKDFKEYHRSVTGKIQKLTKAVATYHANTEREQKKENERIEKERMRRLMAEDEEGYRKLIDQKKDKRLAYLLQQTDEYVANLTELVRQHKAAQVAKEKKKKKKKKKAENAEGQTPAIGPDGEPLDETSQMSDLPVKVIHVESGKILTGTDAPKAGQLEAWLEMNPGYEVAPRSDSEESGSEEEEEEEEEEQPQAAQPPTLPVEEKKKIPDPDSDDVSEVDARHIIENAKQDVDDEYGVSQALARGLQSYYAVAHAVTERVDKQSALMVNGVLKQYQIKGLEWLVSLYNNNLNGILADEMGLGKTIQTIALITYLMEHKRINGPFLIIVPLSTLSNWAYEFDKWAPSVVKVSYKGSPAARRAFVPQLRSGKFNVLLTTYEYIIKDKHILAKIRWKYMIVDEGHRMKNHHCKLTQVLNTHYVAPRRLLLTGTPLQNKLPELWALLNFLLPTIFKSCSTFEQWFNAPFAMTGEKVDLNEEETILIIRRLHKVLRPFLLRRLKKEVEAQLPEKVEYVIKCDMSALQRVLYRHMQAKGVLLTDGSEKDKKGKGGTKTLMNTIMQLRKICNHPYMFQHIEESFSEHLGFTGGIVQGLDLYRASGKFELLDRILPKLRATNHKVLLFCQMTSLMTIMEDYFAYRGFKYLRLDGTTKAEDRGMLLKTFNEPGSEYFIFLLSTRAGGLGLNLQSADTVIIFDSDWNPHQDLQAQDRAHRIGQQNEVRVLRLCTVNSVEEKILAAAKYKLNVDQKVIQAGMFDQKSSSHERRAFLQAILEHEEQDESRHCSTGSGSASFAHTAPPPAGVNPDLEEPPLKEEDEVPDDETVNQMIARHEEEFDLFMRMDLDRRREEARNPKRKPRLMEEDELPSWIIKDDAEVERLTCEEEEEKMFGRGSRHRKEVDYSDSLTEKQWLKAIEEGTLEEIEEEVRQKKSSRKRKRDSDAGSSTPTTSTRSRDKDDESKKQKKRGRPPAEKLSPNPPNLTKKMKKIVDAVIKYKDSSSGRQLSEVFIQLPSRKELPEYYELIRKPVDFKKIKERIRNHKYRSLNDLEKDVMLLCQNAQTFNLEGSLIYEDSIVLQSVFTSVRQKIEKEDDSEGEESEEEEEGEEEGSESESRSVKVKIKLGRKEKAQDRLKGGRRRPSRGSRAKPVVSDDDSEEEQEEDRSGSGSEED

As for `Cc1ncsc1-c1ccc([C@H](C)NC(=O)[C@@H]2C[C@@H](O)CN2C(=O)[C@@H](c2cc(OCCN3C[C@@H]4[C@H](C3)[C@H]4c3[nH]c4nnc(-c5ccccc5O)cc4c3C)no2)C(C)C)cc1` [Compound 272, (2S,4R)-4-hydroxy-1-((R)-2-(3-(2-((1R,5S,6R)-6-(3-(2-hydroxyphenyl)-5-methyl-7H-pyrrolo[2,3-c]pyridazin-6-yl)-3-azabicyclo[3.1.0]hexan-3-yl)ethoxy)isoxazol-5-yl)-3-methylbutanoyl)-N-((S)-1-(4-(4-methylthiazol-5-yl)phenyl)ethyl)pyrrolidine-2-carboxamide], at HiBit-BRM fusion protein, the “BRM HiBit Degradation Maximum (%)” value is “A (“A” indicates maximum degradation ≥ 75%)” and the DC50 is < 10 nM. In test [1], the Dmax was > 75% and the DC50 was > 10 nM.
With `Cc1ncsc1-c1ccc([C@H](C)NC(=O)[C@@H]2C[C@@H](O)CN2C(=O)[C@@H](c2cc(OCCN3C[C@H]4C[C@@H](c5c(C)[nH]c6nnc(-c7ccccc7O)cc56)C[C@H]4C3)no2)C(C)C)cc1` [Compound 109, (2S,4R)-4-hydroxy-1-((R)-2-(3-(2-((3aR,5R,6aS)-5-(3-(2-hydroxyphenyl)-6-methyl-7H-pyrrolo [2,3-c]pyridazin-5-yl)hexahydrocyclopenta[c]pyrrol-2(1H)-yl)ethoxy)isoxazol-5-yl)-3-methylbutanoyl)-N-((S)-1-(4-(4-methylthiazol-5-yl)phenyl)ethyl)pyrrolidine-2-carboxamide], on HiBit-BRM fusion protein, the “BRM HiBit Degradation Maximum (%)” value is on record as “A (“A” indicates maximum degradation ≥ 75%)” and the IC50 is > 10 nM. The “BRG1 HiBit Degradation Maximum (%)” value in test [1] is “C (“C” indicates maximum degradation < 50%)”.
Regarding `Cc1ncsc1-c1ccc(CNC(=O)[C@@H]2C[C@@H](O)CN2C(=O)[C@@H](NC(=O)CCCCCCCCCCCCCCC(=O)N2CC(c3c[nH]c4nnc(-c5ccccc5O)cc34)C2)C(C)(C)C)cc1` [Compound 41, (2S,4R)-4-hydroxy-1-((S)-2-(16-(3-(3-(2-hydroxyphenyl)-7H-pyrrolo[2,3-c]pyridazin-5-yl)azetidin-1-yl)-16-oxohexadecanamido)-3,3-dimethylbutanoyl)-N-(4-(4-methylthiazol-5-yl)benzyl)pyrrolidine-2-carboxamide], the “BRM HiBit Degradation Maximum (%)” value at HiBit-BRM fusion protein is “C (“C” indicates maximum degradation < 50%)”. Also, the Dmax in test [1] was < 50%.
For `Cc1ncsc1-c1ccc([C@H](C)NC(=O)[C@@H]2C[C@@H](O)CN2C(=O)C(c2cc(N3CCC(C(=O)N4CC(c5cc6cc(-c7ccccc7O)nnc6[nH]5)C4)CC3)no2)C(C)C)cc1` (mixture of isomers) [Compound 274, (2S,4R)-4-hydroxy-1-((S)-2-(3-(4-(3-(3-(2-hydroxyphenyl)-7H-pyrrolo[2,3-c]pyridazin-6-yl)azetidine-1-carbonyl)piperidin-1-yl)isoxazol-5-yl)-3-methylbutanoyl)-N-((S)-1-(4-(4-methylthiazol-5-yl)phenyl)ethyl)pyrrolidine-2-carboxamide], at HiBit-BRM fusion protein, the “BRM HiBit Degradation Maximum (%)” value was “A (“A” indicates maximum degradation ≥ 75%)” and the DC50 was > 10 nM. In test [1], the Dmax is > 75% and the DC50 is > 100 nM.
Take `Cc1ncsc1-c1ccc(CNC(=O)[C@@H]2C[C@@H](O)CN2C(=O)[C@@H](NC(=O)CCCC(=O)N[C@@H]2CCc3[nH]c4nnc(-c5ccccc5O)cc4c3C2)C(C)(C)C)cc1` [Compound 180, N1-((S)-1-((2S,4R)-4-hydroxy-2-((4-(4-methylthiazol-5-yl)benzyl)carbamoyl)pyrrolidin-1-yl)-3,3-dimethyl-1-oxobutan-2-yl)-N5-((R)-3-(2-hydroxyphenyl)-6,7,8,9-tetrahydro-5H-pyridazino[3,4-b]indol-6-yl)glutaramide]: the “BRM HiBit Degradation Maximum (%)” value on HiBit-BRM fusion protein is listed as “C (“C” indicates maximum degradation < 50%)”. Moreover, in test [1], the Dmax is < 50%.
On the same counts, the results for `Cc1ncsc1-c1ccc(CNC(=O)[C@@H]2C[C@@H](O)CN2C(=O)[C@@H](NC(=O)CCCCCCCNCCC(=O)N2CC(c3cc4cc(-c5ccccc5O)nnc4[nH]3)C2)C(C)(C)C)cc1` (racemic) [Compound 66, (2S,4R)-4-hydroxy-1-((S)-2-(8-((3-(3-(3-(2-hydroxyphenyl)-7H-pyrrolo[2,3-c]pyridazin-6-yl)azetidin-1-yl)-3-oxopropyl)amino)octanamido)-3,3-dimethylbutanoyl)-N-(4-(4-methylthiazol-5-yl)benzyl)pyrrolidine-2-carboxamide] are “C (“C” indicates maximum degradation < 50%)” and < 50%.
On the same counts, the results for `Cc1ncsc1-c1ccc([C@H](C)NC(=O)[C@@H]2C[C@@H](O)CN2C(=O)[C@@H](c2cc(OCCN3CC(c4cn(C(F)F)c5nnc(-c6ccccc6O)cc45)C3)no2)C(C)C)cc1` [Compound 116, (2S,4R)-1-((R)-2-(3-(2-(3-(7-(difluoromethyl)-3-(2-hydroxyphenyl)-7H-pyrrolo[2,3-c]pyridazin-5-yl)azetidin-1-yl)ethoxy)isoxazol-5-yl)-3-methylbutanoyl)-4-hydroxy-N-((S)-1-(4-(4-methylthiazol-5-yl)phenyl)ethyl)pyrrolidine-2-carboxamide] are “C (“C” indicates maximum degradation < 50%)” and < 50%.
Turning to `Cc1ncsc1-c1ccc([C@H](C)NC(=O)[C@@H]2C[C@@H](O)CN2C(=O)[C@H](c2cc(C3CCN(C(=O)[C@H]4CCc5[nH]c6nnc(-c7ccccc7O)cc6c5C4)CC3)no2)C(C)C)cc1` (single isomer, unassigned) [Compound 155], on HiBit-BRM fusion protein, the “BRM HiBit Degradation Maximum (%)” value is listed as “C (“C” indicates maximum degradation < 50%)”. Further, in test [1], the Dmax was < 50%.
Turning to `Cc1ncsc1-c1ccc(CNC(=O)[C@@H]2C[C@@H](O)CN2C(=O)[C@@H](NC(=O)CCCCCNC(=O)[C@@H]2CCc3[nH]c4nnc(-c5ccccc5O)cc4c3C2)C(C)(C)C)cc1` (racemic) [Compound 195, (R)-N-(6-(((S)-1-((2S,4R)-4-hydroxy-2-((4-(4-methylthiazol-5-yl)benzyl)carbamoyl)pyrrolidin-1-yl)-3,3-dimethyl-1-oxobutan-2-yl)amino)-6-oxohexyl)-3-(2-hydroxyphenyl)-6,7,8,9-tetrahydro-5H-pyridazino[3,4-b]indole-6-carboxamide], at HiBit-BRM fusion protein, the “BRM HiBit Degradation Maximum (%)” value is on record as “B (“B” indicates maximum degradation ≥ 50%)” and the DC50 is > 100 nM. Also, the Dmax in test [1] was < 50%.
As for `Cc1ncsc1-c1ccc([C@H](C)NC(=O)[C@@H]2C[C@@H](O)CN2C(=O)[C@@H](c2cc(OCCNC3CC4(C3)CC(c3cc5cc(-c6ccccc6O)nnc5[nH]3)C4)no2)C(C)C)cc1` (mixture of isomers) [Compound 223, (2S,4R)-4-hydroxy-1-((R)-2-(3-(2-((6-(3-(2-hydroxyphenyl)-7H-pyrrolo[2,3-c]pyridazin-6-yl)spiro[3.3]heptan-2-yl)amino)ethoxy)isoxazol-5-yl)-3-methylbutanoyl)-N-((S)-1-(4-(4-methylthiazol-5-yl)phenyl)ethyl)pyrrolidine-2-carboxamide], at HiBit-BRM fusion protein, the “BRM HiBit Degradation Maximum (%)” value is on record as “A (“A” indicates maximum degradation ≥ 75%)” and the DC50 was > 10 nM. In addition, in test [1], the Dmax is > 75% and the DC50 is > 100 nM.
Regarding `Cc1ncsc1-c1ccc(CNC(=O)[C@@H]2C[C@@H](O)CN2C(=O)[C@@H](NC(=O)CCCCCCCCCCCCCCCC(=O)N2CC(c3cc4cc(-c5ccccc5O)nnc4[nH]3)C2)C(C)(C)C)cc1` [Compound 22, (2S,4R)-4-hydroxy-1-((S)-2-(17-(3-(3-(2-hydroxyphenyl)-7H-pyrrolo[2,3-c]pyridazin-6-yl)azetidin-1-yl)-17-oxoheptadecanamido)-3,3-dimethylbutanoyl)-N-(4-(4-methylthiazol-5-yl)benzyl)pyrrolidine-2-carboxamide], on HiBit-BRM fusion protein, the “BRM HiBit Degradation Maximum (%)” value was “C (“C” indicates maximum degradation < 50%)”. In test [1], the Dmax is < 50%.
Turning to `Cc1ncsc1-c1ccc([C@H](C)NC(=O)[C@@H]2C[C@@H](O)CN2C(=O)[C@@H](c2cc(OCCN3CC[C@@H](c4[nH]c5nnc(-c6ccccc6O)cc5c4C)C3)no2)C(C)C)cc1` (racemic) [Compound 259, (2S,4R)-4-hydroxy-1-((R)-2-(3-(2-((R)-3-(3-(2-hydroxyphenyl)-5-methyl-7H-pyrrolo[2,3-c]pyridazin-6-yl)pyrrolidin-1-yl)ethoxy)isoxazol-5-yl)-3-methylbutanoyl)-N-((S)-1-(4-(4-methylthiazol-5-yl)phenyl)ethyl)pyrrolidine-2-carboxamide], on HiBit-BRM fusion protein, the “BRM HiBit Degradation Maximum (%)” value is “A (“A” indicates maximum degradation ≥ 75%)” and the DC50 was < 10 nM. In test [1], the Dmax was > 75% and the DC50 was > 10 nM.
Taken in the same sequence, the figures for `Cc1ncsc1-c1ccc([C@H](C)NC(=O)[C@@H]2C[C@@H](O)CN2C(=O)[C@@H](c2cc(OCCN(C)Cc3ccc(Cc4cc5cc(-c6ccccc6O)nnc5[nH]4)cc3)no2)C(C)C)cc1` (racemic) [Compound 284] were “A (“A” indicates maximum degradation ≥ 75%)”, > 10 nM, > 75% and > 100 nM.
For `Cc1ncsc1-c1ccc([C@H](C)NC(=O)[C@@H]2C[C@@H](O)CN2C(=O)[C@@H](c2cc(OCCN[C@H]3CCc4[nH]c5nnc(-c6ccccc6O)cc5c4C3)no2)C(C)C)cc1` (single isomer, unassigned) [Compound 200], at HiBit-BRM fusion protein, the “BRM HiBit Degradation Maximum (%)” value is reported as “A (“A” indicates maximum degradation ≥ 75%)” and the DC50 was > 10 nM. In addition, the Dmax in test [1] was < 50%.

The IC50 is the concentration at which inhibition is half-maximal. Lower therefore signals inhibition by little substance.
